Among the data in US20260053834A1, “COVALENT MODIFIERS OF AKT1 AND USES THEREOF” (Terremoto Biosciences, Inc., priority 2023, published 2026) are IC50 values, retold here.

The test system of assay [1] is LAPC4 prostate cancer cells, which express the AKT1 E17K allele. The experiment in a line: Antiproliferative effects in LAPC4 cells (CellTiter Glo, 72 h). In kind it is cell-based. The note with it: read-out: LAPC4 proliferation IC50: GeoMean IC50. The procedure:
Antiproliferative effects in LAPC4 cells. LAPC4 prostate cancer cells (Klein, K. A. et al. Nat Med 1997, 3, 402-408), which express the AKT1 E17K allele, were grown in IMDM media (Hyclone) supplemented with 12% FBS+1% P/S. To assess compound effects on growth, 1,000 cells/well were seeded in 384 well assay plates, incubated with compound dilutions dissolved in DMSO. After 72 h, intracellular ATP content was assessed with CellTiter Glo reagent (Promega) according to the manufacturer's instructions. IC50 values were calculated by fitting luminescence values to a log(inhibitor) vs. response Hill equation.

The target of a further assay is T1, AKT2 (Homo sapiens, UniProt P31751).
T1 construct: expressed in transfected cells; host or cells: HEK293
The experiment in a line: Live cell target engagement by NanoBRET competitive probe displacement, AKT2. It counts as binding. The note with it: transfected HEK293 cells, 2 h at 37° C., read-out: AKT2 IC50: GeoMean IC50. The procedure:
(§1) Determining live cell AKT1 E17K, AKT1 WT, and AKT2 target engagement by NanoBRET competitive probe displacement. Live cell target engagement assays were performed as described (Vasta, J. D. et al. Cell Chem Biol 2018, 25(11), 206-214). Briefly, HEK293 cells were transfected with plasmids encoding kinase-NanoLuciferase fusion proteins overnight. Cells were then treated with serial dilutions of compound and an ˜EC50 concentration of fluorescently-tagged ATP-competitive tracer (Promega). After incubation for 2 h at 37° C., luciferase substrate and extracellular luciferase inhibitor were added to all wells, and luminescent intensity at 460 nm and 600 nm were measured on a multimode plate-reader. The ratio of E600/E460 was calculated to give the tracer engagement signal (BRET). IC50 values were calculated by fitting BRET values to a log(inhibitor) vs. response Hill equation.

A further assay deals with T2, AKT1 WT (Homo sapiens, UniProt P31749).
T2 construct: expressed in transfected cells; host or cells: HEK293
Description: Live cell target engagement by NanoBRET competitive probe displacement, AKT1 WT. The note with it: transfected HEK293 cells, 2 h at 37° C., read-out: AKT1 WT IC50: GeoMean IC50. In kind it is binding. The procedure:
as §1

The target in another assay is T3, AKT1 E17K (Homo sapiens, UniProt P31749, E17K).
T3 construct: expressed in transfected cells; host or cells: HEK293
Description: Live cell target engagement by NanoBRET competitive probe displacement, AKT1 E17K. In kind it is binding. Conditions: transfected HEK293 cells, 2 h at 37° C., read-out: AKT1 E17K IC50: GeoMean IC50. The procedure: as §1

Read-outs that look alike come from different tables or passages of the source. A value given as a limit tells only on which side of the number the result lay.

T2 sequence (P31749 whole entry): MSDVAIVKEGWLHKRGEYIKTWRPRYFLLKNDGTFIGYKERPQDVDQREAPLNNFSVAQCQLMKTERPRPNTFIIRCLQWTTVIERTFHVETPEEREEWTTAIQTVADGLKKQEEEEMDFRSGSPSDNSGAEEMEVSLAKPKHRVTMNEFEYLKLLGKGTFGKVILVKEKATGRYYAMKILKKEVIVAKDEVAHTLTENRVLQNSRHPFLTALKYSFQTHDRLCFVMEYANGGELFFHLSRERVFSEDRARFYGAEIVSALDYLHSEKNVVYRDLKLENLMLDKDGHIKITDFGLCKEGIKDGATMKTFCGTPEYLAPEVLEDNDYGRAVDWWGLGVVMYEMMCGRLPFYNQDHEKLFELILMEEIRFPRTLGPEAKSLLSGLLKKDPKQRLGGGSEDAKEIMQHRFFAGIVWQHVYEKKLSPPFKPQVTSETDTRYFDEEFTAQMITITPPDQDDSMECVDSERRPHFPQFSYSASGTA
T1 sequence (P31751 whole entry): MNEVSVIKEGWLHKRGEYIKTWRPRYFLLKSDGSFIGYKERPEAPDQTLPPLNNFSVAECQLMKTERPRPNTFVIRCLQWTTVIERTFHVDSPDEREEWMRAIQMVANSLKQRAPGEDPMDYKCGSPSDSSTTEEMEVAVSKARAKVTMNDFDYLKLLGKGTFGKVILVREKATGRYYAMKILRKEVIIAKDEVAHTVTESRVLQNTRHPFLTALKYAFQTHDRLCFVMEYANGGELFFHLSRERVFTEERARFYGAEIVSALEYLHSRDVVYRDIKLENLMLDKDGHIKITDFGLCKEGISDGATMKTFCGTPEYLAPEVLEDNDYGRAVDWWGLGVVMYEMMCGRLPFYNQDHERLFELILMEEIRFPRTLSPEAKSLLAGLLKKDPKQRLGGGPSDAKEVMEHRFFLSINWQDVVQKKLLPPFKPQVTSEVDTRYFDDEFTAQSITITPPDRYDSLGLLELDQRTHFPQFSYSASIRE
T3 sequence (P31749 whole entry E17K): as the sequence (P31749 whole entry) above, with E17K counted along it

Take `Nc1ncccc1-c1nc2ccc(-n3cccn3)nc2n1-c1ccc2c(c1)CC(F)[C@@H]2NC(=O)c1cc(C=O)c(O)cc1F` (single isomer, unassigned) [Example 259, N-((1R,2S*)-5-(2-(2-aminopyridin-3-yl)-5-(1H-pyrazol-1-yl)-3H-imidazo[4,5-b]pyridin-3-yl)-2-fluoro-2,3-dihydro-1H-inden-1-yl)-2-fluoro-5-formyl-4-hydroxybenzamide]: the IC50 is 10 to 100 nM in assay [1], 100 to 2000 nM at AKT2, 10 to 100 nM on AKT1 WT and 10 to 100 nM on AKT1 E17K.

In the case of `Nc1ncccc1-c1nc2ccc(-c3ccccc3)nc2n1-c1ccc2c(c1)CC[C@@H]2NC(=O)c1ccc(O)c(C=O)c1` [Example 5, (S)—N-(5-(2-(2-aminopyridin-3-yl)-5-phenyl-3H-imidazo[4,5-b]pyridin-3-yl)-2,3-dihydro-1H-inden-1-yl)-3-formyl-4-hydroxybenzamide], the IC50 in assay [1] (Homo sapiens, LAPC4, 72 h) lay in the range of 10 to 100 nM; at AKT2 it was 10 to 100 nM; at AKT1 WT it was 10 to 100 nM; on AKT1 E17K, 10 to 100 nM.

In the case of `Nc1ncccc1-c1nc2ccc(-c3ccccc3)nc2n1-c1ccc2c(c1)CC[C@@H]2NC(=O)c1cc(F)c(O)c(C=O)c1` [Example 8, N-[(1S)-5-[2-(2-aminopyridin-3-yl)-5-phenylimidazo[4,5-b]pyridin-3-yl]-2,3-dihydro-1H-inden-1-yl]-3-fluoro-5-formyl-4-hydroxybenzamide], the IC50 in assay [1] (Homo sapiens, LAPC4, 72 h) lay within 10 to 100 nM; on AKT2 it was 100 to 2000 nM; on AKT1 WT it was 10 to 100 nM; at AKT1 E17K, 10 to 100 nM.

`Nc1ncccc1-c1nc2ccc(-c3ccccc3)nc2n1-c1ccc2c(c1)CCC2C(=O)NCc1ccc(C=O)c(O)c1` (centres unmarked) [Example 10, 5-(2-(2-aminopyridin-3-yl)-5-phenyl-3H-imidazo[4,5-b]pyridin-3-yl)-N-(4-formyl-3-hydroxybenzyl)-2,3-dihydro-1H-indene-1-carboxamide]: the IC50 in assay [1] (Homo sapiens, LAPC4, 72 h) is 10 to 100 nM; on AKT2, 100 to 2000 nM; at AKT1 WT, 10 to 100 nM; on AKT1 E17K, less than 10 nM.

On to `Nc1ncccc1-c1nc2ccc(-c3ccccc3)nc2n1-c1ccc2c(c1)CC[C@@H]2NC(=O)c1cc(Cl)c(O)c(C=O)c1` [Example 11, N-[(1S)-5-[2-(2-aminopyridin-3-yl)-5-phenylimidazo[4,5-b]pyridin-3-yl]-2,3-dihydro-1H-inden-1-yl]-3-chloro-5-formyl-4-hydroxybenzamide], for which the IC50 in assay [1] (Homo sapiens, LAPC4, 72 h) was in the range of 100 to 2000 nM; on AKT2, 100 to 2000 nM; on AKT1 WT, 10 to 100 nM; on AKT1 E17K, 10 to 100 nM.

`Nc1ncccc1-c1nc2ccc(-c3ccccc3)nc2n1-c1ccc2c(c1)CC[C@@H]2NC(=O)C1(c2cnc(C=O)c(O)c2)CC1` [Example 12, N-[(1S)-5-[2-(2-aminopyridin-3-yl)-5-phenylimidazo[4,5-b]pyridin-3-yl]-2,3-dihydro-1H-inden-1-yl]-1-(6-formyl-5-hydroxypyridin-3-yl)cyclopropane-1-carboxamide]: the IC50 in assay [1] (Homo sapiens, LAPC4, 72 h) was no less than 2000 nM; at AKT2, 100 to 2000 nM; at AKT1 WT it was 100 to 2000 nM; on AKT1 E17K, 100 to 2000 nM.

`Cc1ccc2nc(-c3cccnc3N)n(-c3ccc4c(c3)CC[C@@H]4NC(=O)c3ccc(O)c(C=O)c3)c2n1` [Example 13, N-[(1S)-5-[2-(2-aminopyridin-3-yl)-5-methylimidazo[4,5-b]pyridin-3-yl]-2,3-dihydro-1H-inden-1-yl]-3-formyl-4-hydroxybenzamide]: the IC50 in assay [1] (Homo sapiens, LAPC4, 72 h) was 100 to 2000 nM; at AKT2 it was no less than 2000 nM; on AKT1 WT, 100 to 2000 nM; on AKT1 E17K, 10 to 100 nM.

As to `CC(=O)Nc1ccc(C(=O)N[C@H]2CCc3cc(-n4c(-c5cccnc5N)nc5ccc(-c6ccccc6)nc54)ccc32)cc1C=O` [Example 14, N-[(1S)-5-[2-(2-aminopyridin-3-yl)-5-phenylimidazo[4,5-b]pyridin-3-yl]-2,3-dihydro-1H-inden-1-yl]-4-acetamido-3-formylbenzamide], the IC50 in assay [1] (Homo sapiens, LAPC4, 72 h) is less than 10 nM; at AKT2, 10 to 100 nM; on AKT1 WT, less than 10 nM; at AKT1 E17K it was less than 10 nM.

Take `Nc1ncccc1-c1nc2cccnc2n1-c1ccc2c(c1)CC[C@@H]2NC(=O)c1ccc(O)c(C=O)c1` [Example 15, N-[(1S)-5-[2-(2-aminopyridin-3-yl)imidazo[4,5-b]pyridin-3-yl]-2,3-dihydro-1H-inden-1-yl]-3-formyl-4-hydroxybenzamide]: the IC50 was 100 to 2000 nM in assay [1] (Homo sapiens, LAPC4, 72 h); no less than 2000 nM on AKT2; 100 to 2000 nM on AKT1 WT; 10 to 100 nM on AKT1 E17K.

`Nc1ncccc1-c1nc2ccc(-c3ccccc3)nc2n1-c1ccc2c(c1)CC[C@@H]2NC(=O)c1cc(C=O)c(O)cc1F` [Example 16, N-[(1S)-5-[2-(2-aminopyridin-3-yl)-5-phenylimidazo[4,5-b]pyridin-3-yl]-2,3-dihydro-1H-inden-1-yl]-2-fluoro-5-formyl-4-hydroxybenzamide]: the IC50 was in the range of 100 to 2000 nM in assay [1] (Homo sapiens, LAPC4, 72 h); 10 to 100 nM on AKT2; 10 to 100 nM on AKT1 WT; 10 to 100 nM at AKT1 E17K.

Take `COc1cc(O)c(C=O)cc1C(=O)N[C@H]1CCc2cc(-n3c(-c4cccnc4N)nc4ccc(-c5ccccc5)nc43)ccc21` [Example 17, N-[(1S)-5-[2-(2-aminopyridin-3-yl)-5-phenylimidazo[4,5-b]pyridin-3-yl]-2,3-dihydro-1H-inden-1-yl]-5-formyl-4-hydroxy-2-methoxybenzamide]: the IC50 is 100 to 2000 nM in assay [1] (Homo sapiens, LAPC4, 72 h); 100 to 2000 nM at AKT2; 100 to 2000 nM on AKT1 WT; 100 to 2000 nM on AKT1 E17K.

On to `Nc1ncccc1-c1nc2ccc(-c3cccnn3)nc2n1-c1ccc2c(c1)CC[C@@H]2NC(=O)c1ccc(O)c(C=O)c1` [Example 18, N-[(1S)-5-[2-(2-aminopyridin-3-yl)-5-(pyridazin-3-yl)imidazo[4,5-b]pyridin-3-yl]-2,3-dihydro-1H-inden-1-yl]-3-formyl-4-hydroxybenzamide], for which the IC50 in assay [1] (Homo sapiens, LAPC4, 72 h) lay in the range of 100 to 2000 nM; at AKT2, 100 to 2000 nM; at AKT1 WT, 10 to 100 nM; at AKT1 E17K, 10 to 100 nM.

As to `CN1CCN(c2cccc(-c3ccc4nc(-c5cccnc5N)n(-c5ccc6c(c5)CC[C@@H]6NC(=O)c5ccc(O)c(C=O)c5)c4n3)c2)CC1` [Example 19, (S)—N-(5-(2-(2-aminopyridin-3-yl)-5-(3-(4-methylpiperazin-1-yl)phenyl)-3H-imidazo[4,5-b]pyridin-3-yl)-2,3-dihydro-1H-inden-1-yl)-3-formyl-4-hydroxybenzamide], the IC50 is 10 to 100 nM in assay [1] (Homo sapiens, LAPC4, 72 h); less than 10 nM on AKT2; less than 10 nM on AKT1 WT; less than 10 nM at AKT1 E17K.

Take `Nc1ncccc1-c1nc2ccc(-c3ccc(F)cc3)nc2n1-c1ccc2c(c1)CC[C@@H]2NC(=O)c1ccc(O)c(C=O)c1` [Example 20, (S)—N-(5-(2-(2-aminopyridin-3-yl)-5-(4-fluorophenyl)-3H-imidazo[4,5-b]pyridin-3-yl)-2,3-dihydro-1H-inden-1-yl)-3-formyl-4-hydroxybenzamide]: the IC50 in assay [1] (Homo sapiens, LAPC4, 72 h) lay in the range of 10 to 100 nM; at AKT2, 100 to 2000 nM; at AKT1 WT, 10 to 100 nM; on AKT1 E17K, 10 to 100 nM.

Take `Nc1ncccc1-c1nc2ccc(-c3ccccc3F)nc2n1-c1ccc2c(c1)CC[C@@H]2NC(=O)c1ccc(O)c(C=O)c1` [Example 21, N-[(1S)-5-[2-(2-aminopyridin-3-yl)-5-(2-fluorophenyl)imidazo[4,5-b]pyridin-3-yl]-2,3-dihydro-1H-inden-1-yl]-3-formyl-4-hydroxybenzamide]: the IC50 in assay [1] (Homo sapiens, LAPC4, 72 h) was 10 to 100 nM; at AKT2, 10 to 100 nM; on AKT1 WT, 10 to 100 nM; on AKT1 E17K it was 10 to 100 nM.

Consider `Nc1ncccc1-c1nc2ccc(-c3ccccc3)nc2n1-c1ccc2c(c1)CC[C@@H]2NC(=O)c1cc(C=O)c(O)c(F)c1F` [Example 22, N-[(1S)-5-[2-(2-aminopyridin-3-yl)-5-phenylimidazo[4,5-b]pyridin-3-yl]-2,3-dihydro-1H-inden-1-yl]-2,3-difluoro-5-formyl-4-hydroxybenzamide], for which the IC50 lay within 10 to 100 nM in assay [1] (Homo sapiens, LAPC4, 72 h); 10 to 100 nM on AKT2; 10 to 100 nM at AKT1 WT; 10 to 100 nM at AKT1 E17K.

For the molecule `Nc1ncccc1-c1nc2ccc(-c3cccnc3)nc2n1-c1ccc2c(c1)CC[C@@H]2NC(=O)c1ccc(O)c(C=O)c1` [Example 23, N-[(1S)-5-[2-(2-aminopyridin-3-yl)-5-(pyridin-3-yl)imidazo[4,5-b]pyridin-3-yl]-2,3-dihydro-1H-inden-1-yl]-3-formyl-4-hydroxybenzamide], the IC50 in assay [1] (Homo sapiens, LAPC4, 72 h) was in the range of 10 to 100 nM; at AKT2, 100 to 2000 nM; at AKT1 WT it was 10 to 100 nM; on AKT1 E17K, 10 to 100 nM.
